The supplement of paper PMC13380429

Tests used:
Settings in all cases: 72 h
HepG2 [1] = test: relative viability EC50 (midpoint between 100% and the lowest measured viability); higher = less toxic
Calu-3 [2] = test: as above
U2OS [3] = test: as above
Caco-2 [4] = test: as above
HepG2 [5] = test: drug sensitivity score (DSS) for viability; higher = more toxic; extreme values may be limits of the assay
Calu-3 [6] = test: as above
U2OS [7] = test: as above
Caco-2 [8] = test: as above
HepG2 [9] = test: cell viability relative to DMSO; higher = less toxic
Calu-3 [10] = test: as above
U2OS [11] = test: as above
Caco-2 [12] = test: as above
Vero E6 [13] = test: drug sensitivity score (DSS) for viability; higher = more toxic; extreme values may be limits of the assay
Vero E6 [14] = test: cell viability relative to DMSO; higher = less toxic

Row | Compound | relative viability EC50 (HepG2 [1]) [µM] | relative viability EC50 (Calu-3 [2]) [µM] | relative viability EC50 (U2OS [3]) [µM] | relative viability EC50 (Caco-2 [4]) [µM] | drug sensitivity score (HepG2 [5]) | drug sensitivity score (Calu-3 [6]) | drug sensitivity score (U2OS [7]) | drug sensitivity score (Caco-2 [8]) | cell viability (HepG2 [9]; 1 nM) [%] | cell viability (HepG2 [9]; 10 nM) [%] | cell viability (HepG2 [9]; 100 nM) [%] | cell viability (HepG2 [9]; 1000 nM) [%] | cell viability (HepG2 [9]; 10000 nM) [%] | cell viability (Calu-3 [10]; 1 nM) [%] | cell viability (Calu-3 [10]; 10 nM) [%] | cell viability (Calu-3 [10]; 100 nM) [%] | cell viability (Calu-3 [10]; 1000 nM) [%] | cell viability (Calu-3 [10]; 10000 nM) [%] | cell viability (U2OS [11]; 1 nM) [%] | cell viability (U2OS [11]; 10 nM) [%] | cell viability (U2OS [11]; 100 nM) [%] | cell viability (U2OS [11]; 1000 nM) [%] | cell viability (U2OS [11]; 10000 nM) [%] | cell viability (Caco-2 [12]; 1 nM) [%] | cell viability (Caco-2 [12]; 10 nM) [%] | cell viability (Caco-2 [12]; 100 nM) [%] | cell viability (Caco-2 [12]; 1000 nM) [%] | cell viability (Caco-2 [12]; 10000 nM) [%] | drug sensitivity score (Vero E6 [13]) | cell viability (Vero E6 [14]; 1 nM) [%] | cell viability (Vero E6 [14]; 10 nM) [%] | cell viability (Vero E6 [14]; 100 nM) [%] | cell viability (Vero E6 [14]; 1000 nM) [%] | cell viability (Vero E6 [14]; 10000 nM) [%]
1 | CC[N+](CC)(CC)CCOc1cccc(OCC[N+](CC)(CC)CC)c1OCC[N+](CC)(CC)CC [gallamine-triethiodide] | > 10 | > 10 | > 10 | > 10 | 0 | 0 | 0 | 0 | 94.7 | 102 | 94 | 93.1 | 95.6 | 104 | 108 | 104 | 90.8 | 95 | 103 | 101 | 102 | 99.8 | 100 | 104 | 96.2 | 91.5 | 98.2 | 101 |  |  |  |  |  | 
2 | COC(=O)C1=CO[C@@H](O[C@@H]2O[C@H](CO)[C@@H](O)[C@H](O)[C@H]2O)[C@@H]2C(CO)=CC[C@H]12 [geniposide] | > 10 | > 10 | > 10 | > 10 | 0 | 0 | 0 | 0 | 104 | 95.5 | 106 | 114 | 92.4 | 84.8 | 98.2 | 91.2 | 96.4 | 98.4 | 93.9 | 99.4 | 94.9 | 99.5 | 99 | 99.6 | 94.5 | 93.5 | 95.9 | 93.9 |  |  |  |  |  | 
3 | CC(C)Cc1ccc(C(C)C(=O)NO)cc1 (stereo not given) [ibuproxam] |  |  |  |  | 0 | 0 | 0 |  |  |  |  |  |  |  |  |  |  |  |  |  |  |  |  |  |  |  |  |  | 0 |  |  |  |  | 
4 | c1cc(Cc2cnc[nH]2)ccn1 [immethridine] | > 10 | > 10 | > 10 | > 10 | 0 | 0 | 0 | 0 | 93.8 | 104 | 99.1 | 93.4 | 97 | 107 | 96.8 | 94.6 | 94.8 | 103 | 94.1 | 99.9 | 97.4 | 102 | 98.4 | 99.7 | 103 | 95 | 97.1 | 90.3 |  |  |  |  |  | 
5 | CNC(=O)c1c(I)c(C(=O)NCC(=O)Nc2c(I)c(C(=O)O)c(I)c(C(=O)NCCO)c2I)c(I)c(N(C)C(C)=O)c1I [ioxaglic-acid] | > 10 | > 10 | > 10 | > 10 | 0 | 0 | 0 | 0 | 95.9 | 98.4 | 94 | 98.2 | 96.9 | 109 | 101 | 97.2 | 102 | 95.5 | 106 | 96.9 | 102 | 101 | 104 | 104 | 92.4 | 106 | 100 | 103 |  |  |  |  |  | 
6 | CCOC(=O)CSCCC1NC(C(=O)O)CS1 (stereo not given) [letosteine] | > 10 | > 10 | > 10 | > 10 | 0 | 0 | 0 | 0 | 80.5 | 96.4 | 98.7 | 95.6 | 92.9 | 97.6 | 97.1 | 116 | 96.9 | 101 | 101 | 102 | 107 | 99.6 | 103 | 90.8 | 80.7 | 97.4 | 97.9 | 75.5 | 1.1 | 75.4 | 102 | 74.4 | 98.3 | 93.3
7 | N[C@H](Cc1cc(I)c(Oc2ccc(O)c(I)c2)c(I)c1)C(=O)O [liothyronine-(isomer)] |  |  |  |  | 0 |  | 0 | 0 | 109 | 99.7 | 107 | 102 | 105 |  |  |  |  |  | 101 | 99.9 | 96.8 | 102 | 96 | 99.7 | 92.9 | 100 | 104 | 92.7 | 0 | 98.8 | 92.9 | 93.1 | 90.7 | 91.1
8 | CC1CS(=O)(=O)CCN1/N=C/c1ccc([N+](=O)[O-])o1 (stereo not given) [nifurtimox] |  |  |  |  | 0 | 0 | 0 |  |  |  |  |  |  |  |  |  |  |  |  |  |  |  |  |  |  |  |  |  | 0 |  |  |  |  | 
9 | O=C(O)c1cc(=O)[nH]c(=O)[nH]1 [orotic-acid] | > 10 | > 10 | > 10 | > 10 | 0 | 0 | 0 | 0 | 106 | 117 | 98.6 | 106 | 100 | 103 | 98.7 | 97.6 | 99.6 | 100 | 102 | 101 | 104 | 97.7 | 99.4 | 105 | 94.8 | 92.6 | 80 | 102 |  |  |  |  |  | 
10 | CC(=O)O[C@H]1C(=O)[C@@]2(C)[C@H]([C@H](OC(=O)c3ccccc3)[C@]3(O)C[C@H](OC(=O)[C@H](O)[C@@H](NC(=O)c4ccccc4)c4ccccc4)C(C)=C1C3(C)C)[C@]1(OC(C)=O)CO[C@@H]1C[C@@H]2O [paclitaxel] | 0.0095 |  | 0.0128 | 0.0334 | 24.9 | 16.4 | 25.9 | 14.7 | 108 | 64.9 | 42.8 | 36.5 | 34.4 | 97.9 | 64.3 | 62.6 | 68.5 | 65.7 | 101 | 67.9 | 32.9 | 30.3 | 26.3 | 109 | 84.8 | 61.7 | 57 | 48.7 | 8.6 | 103 | 98.3 | 91.6 | 59.8 | 74.2
11 | N=C(N)c1ccc(OCCCCCOc2ccc(C(=N)N)cc2)cc1 [pentamidine] | 0.39 | > 10 |  |  | 13.9 | 0 | 1.8 | 1.9 | 104 | 97.5 | 105 | 22.5 | 18.3 | 94.7 | 104 | 104 | 96 | 94.5 | 105 | 105 | 101 | 96.3 | 71.5 | 90.1 | 93.4 | 92.2 | 93.9 | 71.7 | 3.4 | 107 | 65.4 | 92.6 | 79.8 | 82.9
12 | Cc1nc(=O)c2cc(CN(C)c3ccc(C(=O)N[C@@H](CCC(=O)O)C(=O)O)s3)ccc2[nH]1 [raltitrexed] |  | > 10 | > 10 |  | 10.5 | 2 | 0 | 13.4 | 111 | 104 | 70.7 | 60.7 | 65.1 | 103 | 104 | 87.4 | 92.6 | 85.8 | 99.1 | 105 | 100 | 97.4 | 95.8 | 91.2 | 99 | 64.2 | 59.9 | 50.1 | 10.7 | 98.8 | 101 | 66.1 | 62.9 | 66.6
13 | O=C(O)c1cn(-c2ccc(F)cc2)c2cc(N3CCNCC3)c(F)cc2c1=O [sarafloxacin] | > 10 | > 10 | > 10 | > 10 | 0 | 0 | 0 | 0 | 113 | 98.8 | 101 | 94.4 | 99.6 | 93.1 | 95.7 | 102 | 99.7 | 101 | 101 | 108 | 99.2 | 100 | 97.4 | 98.3 | 87.3 | 95.6 | 98 | 97.4 |  |  |  |  |  | 
14 | C[C@]1(Cn2ccnn2)[C@H](C(=O)O)N2C(=O)C[C@H]2S1(=O)=O [tazobactam] | > 10 | > 10 | > 10 | > 10 | 0 | 0 | 0 | 0 | 107 | 102 | 97.4 | 113 | 107 | 93.2 | 98.7 | 91.6 | 94.3 | 105 | 95.4 | 102 | 98.9 | 100 | 95.6 | 81.7 | 96.4 | 91.3 | 94.6 | 85.4 |  |  |  |  |  | 
15 | CO[C@H]1C[C@@H]2CC[C@@H](C)[C@@](O)(O2)C(=O)C(=O)N2CCCC[C@H]2C(=O)O[C@H]([C@H](C)C[C@@H]2CC[C@H](n3cnnn3)[C@H](OC)C2)CC(=O)[C@H](C)/C=C(\C)[C@@H](O)[C@@H](OC)C(=O)[C@H](C)C[C@H](C)/C=C/C=C/C=C/1C [zotarolimus] |  | < 0.001 |  |  | 15.4 | 22.1 | 19.9 | 19.5 | 84.4 | 74 | 63.1 | 62.9 | 61.1 | 68.2 | 59.4 | 54.5 | 46.3 | 52.2 | 93.4 | 61.8 | 60.2 | 56.9 | 52.5 | 82.5 | 63.1 | 60 | 52.9 | 60.3 | 11.9 | 92.6 | 85.2 | 69.6 | 61 | 58.7
